Test results published in paper PMC4508327 (Clinical cancer research : an official journal of the …, 2015).

Key:
QTc interval = type: in vivo, human
advanced solid tumors = test: Objective tumor response; type: in vivo, human
[1] = tested on: patients with advanced solid tumors; conditions: human, in vivo
[2] = in vivo
[3] = preclinical; no reference given; cited from earlier work
[4] = tested on: patients with advanced solid tumors; test: Phase I safety: adverse events

CN(C)C1CCN(C(=O)c2ccc(NC(=O)Nc3ccc(-c4nc(N5CCOCC5)nc(N5CCOCC5)n4)cc3)cc2)CC1 [PF-05212384]
association with QTc prolongation (QTc interval; based on the lack of a dose-effect relationship): likely not associated with QTc prolongation
patients with grade 1 QTc prolongation (QTc interval; human, in vivo): 5%
patients with grade 2 QTc prolongation (QTc interval; human, in vivo): 5%
patients with grade 3 QTc prolongation (QTc interval; in vivo): no patients
patients with long-lasting stable disease (>6 months) (advanced solid tumors; 77 treated patients): Eight
clinical benefit response (CBR) (advanced solid tumors; CR, PR or SD lasting ≥6 months, overall): 13%
objective tumor response rate (advanced solid tumors; overall study population, n = 77): 2.6%
partial responses (PR) (advanced solid tumors; overall study population, plus one unconfirmed PR): two
all-cause AE: anemia [1]: 18.2%
all-cause AE: asthenia [1]: 26%
all-cause AE: back pain [1]: 19.5%
all-cause AE: constipation [1]: 23.4%
all-cause AE: cough [1]: 23.4%
all-cause AE: decreased appetite [1]: 37.7%
all-cause AE: diarrhea [1]: 24.7%
all-cause AE: dyspnea [1]: 19.5%
all-cause AE: fatigue [1]: 32.5%
all-cause AE: hyperglycemia [1]: 28.6%
all-cause AE: increased ALT and AST [1]: 16.9%
all-cause AE: mucosal inflammation and stomatitis [1]: 59.7%
all-cause AE: nausea [1]: 55.8%
all-cause AE: pyrexia [1]: 23.4%
all-cause AE: rash [1]: 23.4%
all-cause AE: vomiting [1]: 35.1%
patients who discontinued due to treatment-related AEs [1]: 3.9%
treatment-related AE: decreased appetite [1]: 24.7%
treatment-related AE: fatigue [1]: 24.7%
treatment-related AE: hyperglycemia [1]: 26%
treatment-related AE: mucosal inflammation and stomatitis [1]: 58.4%
treatment-related AE: nausea [1]: 42.9%
treatment-related AE: vomiting [1]: 24.7%
recommended phase 2 dose ([1]; iv): 154 mg
accumulation (accumulation ratios for Cmax) ([2]; human): no accumulation
interpatient variability in Cmax and AUC ([2]; human): low to moderate
terminal T1/2, mean values ([2]; human): 33 to 41 h
Cmax and AUC versus dose [2]: appeared to increase proportionally with increasing dose
effect on cardiac, central nervous system or respiratory function [3]: did not show any significant effect
maximum tolerated dose (MTD) ([4]; IV once weekly, estimated by modified CRM): 154 mg
deaths on study and within 28 days of last-dose administration ([4]; seven disease progression, one colon obstruction, one pneumonia): Nine
